The nature of this data set: Solubility of the lyophilised peptide. The data set is classed as physicochemical. How it is done: The crude peptide was desalted via gel filtration (Sephadex G10, 0.1% TFA in water) before purification by preparative C18 Vydac) high performance liquid chromatography (HPLC) using 0.1% trifluoroacetic acid and 0.1% trifluoroacetic acid/90% acetonitrile as gradient components. After lyophilisation, the peptide was a white amorphous powder, soluble to at least 10 mg/mL in both dimethylsulfoxide and water. Fast atom bombardment spectrometry gave a main peak at 2101 amu corresponding to the molecular ion of the peptide.

Experimental findings from patent US20050090651A1, “Polymeric compounds” (AdProTech Limited Cesterford Research Park, Little …, priority 2001, published 2005) are described below.

The structures appear in SMILES notation. Where a SMILES comes first, the peptide text is derived from it. The star is where a group is joined. Myristoyl = CCCCCCCCCCCCCC(=O)*

The term solubility denotes the concentration that dissolves in the medium under given conditions.

As for `CCCCCCCCCCCCCC(=O)NCC(=O)N[C@@H](CO)C(=O)N[C@@H](CO)C(=O)N[C@@H](CCCCN)C(=O)N[C@@H](CO)C(=O)N1CCC[C@H]1C(=O)N[C@@H](CO)C(=O)N[C@@H](CCCCN)C(=O)N[C@@H](CCCCN)C(=O)N[C@@H](CC(=O)O)C(=O)N[C@@H](CC(=O)O)C(=O)N[C@@H](CCCCN)C(=O)N[C@@H](CCCCN)C(=O)N1CCC[C@H]1C(=O)NCC(=O)N[C@@H](CC(=O)O)C(=O)N[C@@H](CCCCNC(=O)[C@@H](N)CS)C(N)=O` [MSWP2278, Myristoyl-Gly-Ser-Ser-Lys-Ser-Pro-Ser-Lys-Lys-Asp-Asp-Lys-Lys-Pro-Gly-Asp-(ε-amino-cysteinyl carboxamide)-Lys-NH2] (Myristoyl-GSSKSPSKKDDKKPGDK(Cys)-NH2), the solubility runs as follows: (in dimethylsulfoxide) no less than 10000 µg/mL; (in water) no less than 10000 µg/mL.
